The target of one experiment is T1, PTH1R‐R186H (Homo sapiens, UniProt Q03431, R186H).
T1 construct: expressed in transfected cells; plasmid TG-907 made by VectorBuilder
T1 sequence (Q03431 27-593 E90Y/S91D/E92V/E93P/K95Y/E96A/R186H): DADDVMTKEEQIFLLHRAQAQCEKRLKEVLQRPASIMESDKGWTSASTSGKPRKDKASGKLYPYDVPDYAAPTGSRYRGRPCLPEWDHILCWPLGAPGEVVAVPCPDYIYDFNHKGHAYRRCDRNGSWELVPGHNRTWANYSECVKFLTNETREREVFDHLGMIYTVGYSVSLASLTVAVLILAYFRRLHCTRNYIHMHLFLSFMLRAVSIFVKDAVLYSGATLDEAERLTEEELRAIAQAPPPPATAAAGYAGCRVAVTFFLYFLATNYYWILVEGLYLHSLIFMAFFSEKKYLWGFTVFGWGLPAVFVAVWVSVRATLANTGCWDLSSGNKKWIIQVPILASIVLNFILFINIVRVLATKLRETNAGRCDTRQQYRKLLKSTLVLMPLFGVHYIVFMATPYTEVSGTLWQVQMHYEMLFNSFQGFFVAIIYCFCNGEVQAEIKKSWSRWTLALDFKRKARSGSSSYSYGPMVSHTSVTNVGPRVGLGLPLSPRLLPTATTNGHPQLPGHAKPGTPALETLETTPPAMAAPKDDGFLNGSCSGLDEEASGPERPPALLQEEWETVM
The experiment in a line: GloSensor cAMP signaling assay in transiently transfected GS-22a cells. Conditions: for EC50: Table 2, N-terminal analogs, means of four or three (M-PTH(1-11)) experiments, each in duplicate; for EC50 / pEC50: GS-22a cells; for pEC50: Suppl. Table 2, full-length ligands, mean ± SEM of three experiments; for Emax, %: Suppl. Table 2, percent of maximum response of the same ligand on PTH1R-WT, three experiments. The format is cell-based. Here is the method:
(§1) GS‐22a cells are derived from HEK293 cells (American Type Culture Collection [ATCC], Manassas, VA, USA; CRL‐1573) by stably transfection with the luciferase‐based GloSensor (Promega, San Luis Obispo, CA, USA) cAMP reporter plasmid pGloSensor‐22F. The cells were cultured in Dulbecco's modified Eagle medium (DMEM) supplemented with fetal bovine serum (10%) in a humidified incubator containing 5% CO2 and set at 37°C, and seeded into 96‐well or six‐well plates for transient DNA transfection and functional assays. Cells were transfected when the monolayers were 85%–95% of confluency using Lipofectamine™ 2000 (Thermo Fisher Scientific, Waltham, MA, USA) and 100 ng of DNA per well for 96‐well plates and 1000 ng of DNA per well for six‐well plates. Assays were performed 48 hours after transfection, and media was changed 2–4 hours prior to assay.
(§2) PTH1R‐mediated cAMP signaling was assessed via the GloSensor cAMP reporter in GS‐22a cells in white 96‐well plates. Assays were performed at ambient room temperature. For each plate, the media was replaced with CO2‐independent media (Thermo Fisher Scientific; Cat. No. 18045088) containing luciferin (0.5mM) and the plate was placed into a PerkinElmer Envision plate reader and cAMP‐dependent luminescence, as counts per second (cps), was measured at 2‐minute intervals for 15 minutes, during which time luciferin uptake occurred and luminescence reached a near steady‐state baseline. The plate was then removed from the plate reader, media (vehicle) or test ligands were added at varying concentrations, and luminescence was again measured at 2‐minute intervals for an additional 30–60 minutes.
(§3) Data were processed using Microsoft Excel and GraphPad Prism 8.0 software and analyzed statistically using a Student's t test (two‐tailed and unequal variances). Dose–response curves were fit to the data by using a three‐parameter sigmoidal dose–response equation with nonlinear regression, which yielded the reported response parameters of potency (EC50), efficacy (Emax), and […].

For the next experiment, the target named is T2, PTH1R‐V204E (Homo sapiens, UniProt Q03431, V204E).
T2 construct: expressed in transfected cells; plasmid TG-928 made by VectorBuilder
T2 sequence (Q03431 27-593 E90Y/S91D/E92V/E93P/K95Y/E96A/V204E): T1 sequence (Q03431 27-593 E90Y/S91D/E92V/E93P/K95Y/E96A/R186H) with H160R, V178E
The experiment is described as above. The note with it: for EC50: Table 2, N-terminal analogs, means of four or three (M-PTH(1-11)) experiments, each in duplicate; for EC50 / pEC50: GS-22a cells; for pEC50: Suppl. Table 2, full-length ligands, mean ± SEM of three experiments; for Emax, %: Suppl. Table 2, percent of maximum response of the same ligand on PTH1R-WT, three experiments. The format is cell-based. Here is the method: as §1, §2, §3

For a further experiment, the target named is T3, PTH1R‐WT (Homo sapiens, UniProt Q03431).
T3 construct: expressed in transfected cells; plasmid TG-906 made by VectorBuilder
T3 sequence (Q03431 27-593 E90Y/S91D/E92V/E93P/K95Y/E96A): T1 sequence (Q03431 27-593 E90Y/S91D/E92V/E93P/K95Y/E96A/R186H) with H160R
The description is as above. The class given is cell-based. The note with it: for EC50: Table 2, N-terminal analogs, means of four or three (M-PTH(1-11)) experiments, each in duplicate; for EC50 / pEC50: GS-22a cells; for Emax: Table 2, percent of maximum response of the same ligand on PTHR1-WT, four or three (M-PTH(1-11)) experiments; for pEC50: Suppl. Table 2, full-length ligands, mean ± SEM of three experiments, SEM; for Emax, %: Suppl. Table 2, percent of maximum response of the same ligand on PTH1R-WT, three experiments. Here is the method: as §1, §2, §3

A further experiment has as its target T4, PTH1R‐P132L (Homo sapiens, UniProt Q03431, P132L).
T4 construct: expressed in transfected cells; plasmid TG-395 in pCDNA1
T4 sequence (Q03431 27-593 E90Y/S91D/E92V/E93P/K95Y/E96A/P132L): T1 sequence (Q03431 27-593 E90Y/S91D/E92V/E93P/K95Y/E96A/R186H) with P106L, H160R
The experiment is described as above. The format is cell-based. Conditions: Table 1, percent of maximum response of the same ligand on PTH1R-WT, mean ± SEM of five experiments. Here is the method:
as §1, §2, §3

The target in experiment [1] is HA‐tagged human PTH1R‐V204E (human) (UniProt Q03431).
Setting [2] is: Table 2, percent of maximum response of the same ligand on PTHR1-WT, four or three (M-PTH(1-11)) experiments.
Where [3] appears, read: Table 1, percent of maximum response of the same ligand on PTH1R-WT, mean ± SEM of five experiments, SEM.

Substitutions are numbered along the chain they refer to. Non-standard residues stand in square brackets, D forms with d. Residues, ends and D or L forms follow the SMILES beside them. No end group written: not given here. hArg = N=C(N)NCCCC[C@H](N)C(=O)O; Ac5c = NC1(C(=O)O)CCCC1; Aib = CC(C)(N)C(=O)O

Take `CC[C@H](C)[C@H](NC(=O)[C@H](CCC(=O)O)NC(=O)C(C)(C)NC(=O)[C@@H](NC(=O)C1(N)CCCC1)C(C)C)C(=O)N[C@@H](CCC(N)=O)C(=O)N[C@@H](CC(C)C)C(=O)N[C@@H](CCSC)C(=O)N[C@@H](Cc1c[nH]cn1)C(=O)N[C@@H](CCC(N)=O)C(=O)N[C@@H](CCCCNC(=N)N)C(N)=O` [M‐PTH(1‐11), modified (M)‐PTH(1‐11)] (H-[Ac5c]V[Aib]EIQLMHQ[hArg]-NH2): the results for the EC50 at PTH1R‐R186H, on PTH1R‐V204E and at PTH1R‐WT were 2.82 nM, 0.759 nM and 0.191 nM, respectively. The Emax at PTH1R‐R186H (setting [2]) came out at 126 ± 14%; at PTH1R‐V204E (setting [2]) it was 80 ± 11%; on PTH1R‐WT, 100%.
Regarding `CC[C@H](C)[C@H](NC(=O)[C@H](CCC(=O)O)NC(=O)[C@H](CO)NC(=O)[C@@H](NC(=O)[C@@H](N)CO)C(C)C)C(=O)N[C@@H](CCC(N)=O)C(=O)N[C@@H](CC(C)C)C(=O)N[C@@H](CCSC)C(=O)N[C@@H](Cc1c[nH]cn1)C(=O)N[C@@H](CC(N)=O)C(=O)N[C@@H](CC(C)C)C(=O)NCC(=O)N[C@@H](CCCCN)C(=O)N[C@@H](Cc1c[nH]cn1)C(=O)N[C@@H](CC(C)C)C(=O)N[C@@H](CC(N)=O)C(=O)N[C@@H](CO)C(=O)N[C@@H](CCSC)C(=O)N[C@@H](CCC(=O)O)C(=O)N[C@@H](CCCNC(=N)N)C(=O)N[C@H](C(=O)N[C@@H](CCC(=O)O)C(=O)N[C@@H](Cc1c[nH]c2ccccc12)C(=O)N[C@@H](CC(C)C)C(=O)N[C@@H](CCCNC(=N)N)C(=O)N[C@@H](CCCCN)C(=O)N[C@@H](CCCCN)C(=O)N[C@@H](CC(C)C)C(=O)N[C@@H](CCC(N)=O)C(=O)N[C@@H](CC(=O)O)C(=O)N[C@H](C(=O)N[C@@H](Cc1c[nH]cn1)C(=O)N[C@@H](CC(N)=O)C(=O)N[C@@H](Cc1ccccc1)C(N)=O)C(C)C)C(C)C` [PTH(1‐34), human(h)PTH(1‐34)], the results for the Emax on PTH1R‐P132L, at PTH1R‐R186H (setting [3]) and on PTH1R‐V204E (setting [3]) were ~45%, 118 ± 4% and 81 ± 4%, respectively. Moreover, the “Emax, %” value at PTH1R‐P132L (SEM) came out at 44 ± 4%.
Regarding “SVSEIQLMHNLGKHLNSMERVEWLRKKL-NH2 [PTH(1‐28), hPTH(1‐28)]”, the EC50 on PTH1R‐R186H is 0.575 nM; at PTH1R‐V204E it was 0.447 nM; on PTH1R‐WT it was 0.776 nM. Further, the results for the Emax at PTH1R‐R186H (setting [2]), at PTH1R‐V204E (setting [2]) and on PTH1R‐WT were 98 ± 10%, 78 ± 10% and 100%, respectively.
Turning to hPTH(1‐84) [PTH(1-84)], the values for the pEC50 with PTH1R‐R186H (SEM), with PTH1R‐V204E (SEM) and in the experiment with PTH1R‐WT were 9.25, 9.19 and 9.05, respectively. The “Emax, %” value in the experiment with PTH1R‐R186H is 96 ± 4%; with PTH1R‐V204E it was 115 ± 11%; in the experiment with PTH1R‐WT, 100 ± 0%.
As to hPTHrP(1‐141) [PTHrP(1-141)], the pEC50 is listed as 8.90 with PTH1R‐R186H (SEM), 8.55 with PTH1R‐V204E (SEM) and 8.65 with PTH1R‐WT. In addition, the “Emax, %” value with PTH1R‐R186H came to 108 ± 3%; with PTH1R‐V204E it was 133 ± 12%; with PTH1R‐WT, 100 ± 0%.
On to human(h)PTH(1‐34) (peptide), for which the cAMP‐dependent GloSensor luminescence in transfected GS‐22a cells, potency: pEC50 with EC50 (nM) in parentheses in experiment [1] was 0.33 nM.
